Data taken from patent publication US20230096028A1, “BICYCLIC HETEROCYCLYL COMPOUNDS AND USES THEREOF” (Revolution Medicines, Inc., priority 2019, published 2023).
Structures can show the parent of a compound that is named as a salt.

What was measured:
[1] = biological target: T1, SOS1 catalytic domain (residues 564-1049) (Homo sapiens, UniProt Q07889); assay: Potency Assay: binding affinity to SOS1 using Surface Plasmon Resonance (SPR); set-up: SOS1 catalytic domain (residues 564-1049) immobilized on a sensor chip; details: immobilized SOS1 catalytic domain (residues 564-1049), read-out: SOS1 SPR Equilibrium Kd
T1 sequence (Q07889 564-1049): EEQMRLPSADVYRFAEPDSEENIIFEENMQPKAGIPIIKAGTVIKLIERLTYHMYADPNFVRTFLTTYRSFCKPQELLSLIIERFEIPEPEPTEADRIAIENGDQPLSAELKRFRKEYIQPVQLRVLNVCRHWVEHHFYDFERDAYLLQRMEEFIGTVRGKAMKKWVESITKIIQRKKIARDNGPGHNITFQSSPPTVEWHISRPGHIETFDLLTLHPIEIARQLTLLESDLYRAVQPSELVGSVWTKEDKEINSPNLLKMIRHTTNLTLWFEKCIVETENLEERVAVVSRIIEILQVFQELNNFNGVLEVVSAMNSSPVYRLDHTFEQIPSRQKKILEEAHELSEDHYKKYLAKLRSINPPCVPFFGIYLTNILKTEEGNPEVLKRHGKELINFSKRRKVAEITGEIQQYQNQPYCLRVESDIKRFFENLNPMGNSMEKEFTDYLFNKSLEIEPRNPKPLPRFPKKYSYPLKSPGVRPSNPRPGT
Protocol: Data was reported as equilibrium dissociation constant (Kd) values.
Using a GE Biacore 8K SPR instrument, avi-tagged SOS1 catalytic domain protein was immobilized to a level of approximately 6000 response units (RU) on a streptavidin-coated SPR sensor chip in assay buffer containing 0.01 M HEPES, 0.15 M NaCl and 0.05% v/v Surfactant P20. […] For each test compound, a separate 0 μM sample was generated for use during subsequent double reference subtraction. Serially for each test compound, individual dilution samples were flowed over the immobilized SOS1 protein at a flow rate of 50 μL/minute to monitor the association with SOS1. Dissociation of bound test compound from the SOS1 protein was immediately monitored by flowing assay buffer over the sensor surface and monitoring the decrease in binding signal back to the baseline level seen in the absence of compound. This was repeated for all compound dilutions in each series. The binding level response for each test compound concentration was noted immediately prior to the end of the association phase, and a secondary plot generated showing binding response level versus test compound concentration generated for each compound dilution series.

[2] = biological target: T1, SOS1 catalytic domain (residues 564-1049); assay: Mode of Action Assay: inhibition of SOS1 nucleotide exchange activity (SOS1 TR-FRET IC50 Assay)
[3] = system: PC-9 cells (EGFR Ex19Del); assay: Potency Assay: pERK (SOS1 pERK IC50 Assay, AlphaLISA SureFire Ultra p-ERK1/2); assay type: cell-based; details: Homo sapiens; PC-9 cells (EGFR Ex19Del), 1 hour incubation, AlphaLISA p-ERK1/2; read-out: SOS1 pERK IC50
How it was run: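 Cellular pERK1/2 by AlphaLISA SureFire Ultra after 1 h compound exposure (37° C., highest concentration 10 μM, 3-fold steps, duplicates) of EGFR Ex19Del PC-9 cells seeded the day before. A 4-parameter fit of signal versus log concentration gives IC50.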

SMILES	Kd [1]	IC50 [2]	IC50 [3]
CCOc1nc2c(c(N[C@H](C)c3cc(N)cc(C(F)(F)F)c3)n1)CN(C(=O)N1CCOCC1)C2 [Example 124, N-[(1R)-1-[3-amino-5-(trifluoromethyl)phenyl]ethyl]-2-ethoxy-6-(morpholine-4-carbonyl)-5H,6H,7H-pyrrolo[3,4-d]pyrimidin-4-amine]	< 400 nM	< 1000 nM	–
Cc1nc2c(c(N[C@H](C)c3cc(N)cc(C(F)(F)F)c3)n1)CN(C(=O)N1CCOCC1)CCC2 [Example 136, N-[(1R)-1-[3-amino-5-(trifluoromethyl)phenyl]ethyl]-2-methyl-6-(morpholine-4-carbonyl)-5H,6H,-7H,8H,9H-pyrimido[5,4-c]azepin-4-amine]	> 400 nM	> 1000 nM	–
C[C@@H](Nc1nc(Cl)nc2c1CN(C(=O)N1CCc3ncccc3C1)C2)c1cc(N)cc(C(F)(F)F)c1 [Example 147]	< 400 nM	> 1000 nM	–
C[C@@H](Nc1nc(CF)nc2c1CN(C(=O)N1CCOCC1)C2)c1cccc(C(F)F)c1F [Example 540, N-[(1R)-1-[3-(difluoromethyl)-2-fluorophenyl]ethyl]-2-(fluoromethyl)-6-(morpholine-4-carbonyl)-5H,6H,7H-pyrrolo[3,4-d]pyrimidin-4-amine]	< 400 nM	< 1000 nM	–
COC1CN([C@H]2CCc3nc(Cl)nc(N[C@H](C)c4cc(N)cc(C(F)(F)F)c4)c3C2)C1 [Example 432]	< 400 nM	< 1000 nM	–
COc1ccc(C(=O)N2Cc3nc(Cl)nc(N[C@H](C)c4cc(N)cc(C(F)(F)F)c4)c3C2)cc1OC [Example 172]	< 400 nM	< 1000 nM	–
C[C@@H](Nc1nc(Cl)nc2c1CN(C(=O)N1CC[C@H](O)C1)C2)c1cc(N)cc(C(F)(F)F)c1 [Example 161]	< 400 nM	–	–
COC1(C(=O)N2Cc3nc(Cl)nc(N[C@H](C)c4cccc(C(F)F)c4F)c3C2)CCN(C(C)=O)CC1 [Example 345]	< 400 nM	< 1000 nM	–
C[C@@H](Nc1nc(Cl)nc2c1CN(C(=O)C1CC(=O)N(c3ccc4c(c3)OCO4)C1)C2)c1cc(N)cc(C(F)(F)F)c1 (stereo partly shown) [Example 106]	< 400 nM	–	–
C[C@@H](Nc1nc(Cl)nc2c1CN(C(=O)c1cnccn1)C2)c1cc(N)cc(C(F)(F)F)c1 [Example 66]	> 400 nM	> 1000 nM	–
C[C@@H](Nc1nc(Cl)nc2c1CN(S(=O)(=O)c1cn[nH]c1)C2)c1cc(N)cc(C(F)(F)F)c1 [Example 173]	> 400 nM	> 1000 nM	–
C[C@@H](Nc1nc(Cl)nc2c1CN(C(=O)N1CCNc3ncncc31)C2)c1cccc(C(F)F)c1F [Example 427]	< 400 nM	< 1000 nM	–
C[C@@H](Nc1nc(Cl)nc2c1CN(C(=O)C1CN(C)C1)C2)c1cc(N)cc(C(F)(F)F)c1 [Example 100]	< 400 nM	< 1000 nM	–
C[C@@H](Nc1nc(Cl)nc2c1CN(C(=O)NC1CC[C@H](N)C1)C2)c1cc(N)cc(C(F)(F)F)c1 (stereo partly shown) [Example 150]	> 400 nM	< 1000 nM	–
C[C@@H](Nc1nc(Cl)nc2c1CN(C(=O)C1CC3(CCNCC3)C1)C2)c1cc(N)cc(C(F)(F)F)c1 [Example 79]	< 400 nM	–	–
COC(=O)N1Cc2nc(C)nc(N[C@H](C)c3cc(N)cc(C(F)(F)F)c3)c2C1 [Example 117, methyl 4-{[(1R)-1-[3-amino-5-(trifluoromethyl)phenyl]ethyl]amino}-2-methyl-5H,6H,7H-pyrrolo[3,4-d]pyrimidine-6-carboxylate]	> 400 nM	–	–
C[C@@H](Nc1nc(Cl)nc2c1CN(C(=O)C1(N)CCCOC1)C2)c1cc(N)cc(C(F)(F)F)c1 (stereo partly shown) [Example 88]	< 400 nM	–	–
C[C@@H](Nc1nc(Cl)nc2c1CN(S(=O)(=O)N1CC(C#N)C1)C2)c1cc(N)cc(C(F)(F)F)c1 [Example 26]	> 400 nM	–	–
C[C@@H](Nc1nccc2nc(C(=O)N3CCNCC3)cn12)c1cccc(C(F)F)c1F [Example 530, [5-[[(1R)-1-[3-(difluoromethyl)-2-fluoro-phenyl]ethyl]amino]imidazo[1,2-c]pyrimidin-2-yl]-piperazin-1-yl-methanone hydrochloride]	< 400 nM	–	–

SMILES	Kd [1]	IC50 [2]	IC50 [3]
C[C@@H](Nc1nc(Cl)nc2c1CN(C(=O)N1CC3(CCCO3)C1)C2)c1cc(N)cc(C(F)(F)F)c1 [Example 156]	< 400 nM	–	–
C[C@@H](Nc1nc(Cl)nc2c1CN(C(=O)N1C3CCC1COC3)C2)c1cc(N)cc(C(F)(F)F)c1 [Example 158]	< 400 nM	–	–
C[C@@H](Nc1nc(Cl)nc2c1CN(C(=O)N1CCC(C)(N)CC1)C2)c1cc(N)cc(C(F)(F)F)c1 [Example 157]	< 400 nM	–	–
C[C@@H](Nc1nc(Cl)nc2c1CN(C(=O)c1cc3c(s1)CCOC3)C2)c1cc(N)cc(C(F)(F)F)c1 [Example 105]	> 400 nM	–	–
C[C@@H](Nc1nc(Cl)nc2c1CN(C(=O)N1CCc3ncncc3C1)C2)c1cc(N)cc(C(F)(F)F)c1 [Example 144]	< 400 nM	–	–
C[C@@H]1COC[C@H](C)N1C(=O)N1Cc2nc(Cl)nc(N[C@H](C)c3cc(N)cc(C(F)(F)F)c3)c2C1 [Example 164]	< 400 nM	–	–
C[C@@H](Nc1nc(Cl)nc2c1CN(C(=O)N1CC3CCC(C1)O3)C2)c1cc(N)cc(C(F)(F)F)c1 [Example 153]	< 400 nM	–	–
C[C@@H](Nc1nc(Cl)nc2c1CN(S(=O)(=O)N1CCNCC1)C2)c1cc(N)cc(C(F)(F)F)c1 [Example 28]	< 400 nM	–	–
C[C@@H](Nc1nc(Cl)nc2c1CN(C(=O)N1CCC(O)CC1)C2)c1cc(N)cc(C(F)(F)F)c1 [Example 155]	< 400 nM	–	–
C[C@@H](Nc1nc(Cl)nc2c1CN(C(=O)C1CC3(CNC3)C1)C2)c1cc(N)cc(C(F)(F)F)c1 [Example 98]	< 400 nM	–	–
CC(Nc1nc(Cl)nc2c1CN(C(=O)N1CCOCC1)C2)c1cccc(C(F)(F)F)c1Cl (stereo not shown) [Example 498]	–	> 1000 nM	< 1000 nM
C[C@@H](Nc1nc(Cl)nc2c1CN(C(=O)N1C[C@H]3COC[C@H]3C1)C2)c1cc(N)cc(C(F)(F)F)c1 [Example 149]	< 400 nM	–	–
C[C@@H](Nc1nc(Cl)nc2c1CN(C(=O)[C@]13COC[C@H]1CS(=O)(=O)C3)CC2)c1cc(N)cc(C(F)(F)F)c1 [Example 215]	–	> 1000 nM	> 1000 nM
C[C@@H](Nc1nc(Cl)nc2c1CN(C(=O)N1CCOCC1)C2)c1cccc(C(F)(F)OC2CC2)c1 [Example 524, 2-chloro-N-[(1R)-1-[3-(cyclopropoxydifluoromethyl)phenyl]ethyl]-6-(morpholine-4-carbonyl)-5H,6H,7H-pyrrolo[3,4-d]pyrimidin-4-amine]	–	< 1000 nM	> 1000 nM
C[C@@H](Nc1nc(Cl)nc2c1CN(C(=O)N1CCNC3CC31)C2)c1cccc(C(F)(F)F)c1 (stereo partly shown) [Example 379]	–	< 1000 nM	< 1000 nM
C[C@@H](Nc1nc(CNC2COC2)nc2c1CN(C(=O)N1CCOCC1)C2)c1cccc(C(F)F)c1F [Example 509, N-[(1R)-1-[3-(difluoromethyl)-2-fluorophenyl]ethyl]-6-(morpholine-4-carbonyl)-2-{[(oxetan-3-yl)amino]methyl}-5H,6H,7H-pyrrolo-[3,4-d]pyrimidin-4-amine]	–	< 1000 nM	> 1000 nM
CC(O)c1cccc(C(C)Nc2ncnc3c2CN(C(=O)N2CCOCC2)C3)c1 (stereo not shown) [Example 516]	–	> 1000 nM	> 1000 nM
COC1(C(=O)N2CCc3nc(Cl)nc(N[C@H](C)c4cc(N)cc(C(F)(F)F)c4)c3C2)CC1 [Example 201]	–	> 1000 nM	> 1000 nM
C[C@@H](Nc1nc(Cl)nc2c1CN(C(=O)C13COCC(CO1)C3)C2)c1cc(N)cc(C(F)(F)F)c1 (stereo partly shown) [Example 273]	–	< 1000 nM	< 1000 nM
